Key:
Assay in all cases: biochemical
Type in all cases: binding
[1] = target: T1, panel of 442 kinases (Homo sapiens, UniProt Q9Y463); conditions: DYRK1B; for remaining activity at 1 µM: read-out: % of control at 1 µM
T1 construct: purchased Ambit Biosciences (scanMAXX KINOMEscan)

[2] = target: T2, panel of 442 kinases (Homo sapiens, UniProt Q9H093); conditions: kinase SNARK; for remaining activity at 1 µM: read-out: SNARK (% of control at 1 µM)
T2 construct: purchased Ambit Biosciences (scanMAXX KINOMEscan)
T2 sequence (Q9H093 1-628): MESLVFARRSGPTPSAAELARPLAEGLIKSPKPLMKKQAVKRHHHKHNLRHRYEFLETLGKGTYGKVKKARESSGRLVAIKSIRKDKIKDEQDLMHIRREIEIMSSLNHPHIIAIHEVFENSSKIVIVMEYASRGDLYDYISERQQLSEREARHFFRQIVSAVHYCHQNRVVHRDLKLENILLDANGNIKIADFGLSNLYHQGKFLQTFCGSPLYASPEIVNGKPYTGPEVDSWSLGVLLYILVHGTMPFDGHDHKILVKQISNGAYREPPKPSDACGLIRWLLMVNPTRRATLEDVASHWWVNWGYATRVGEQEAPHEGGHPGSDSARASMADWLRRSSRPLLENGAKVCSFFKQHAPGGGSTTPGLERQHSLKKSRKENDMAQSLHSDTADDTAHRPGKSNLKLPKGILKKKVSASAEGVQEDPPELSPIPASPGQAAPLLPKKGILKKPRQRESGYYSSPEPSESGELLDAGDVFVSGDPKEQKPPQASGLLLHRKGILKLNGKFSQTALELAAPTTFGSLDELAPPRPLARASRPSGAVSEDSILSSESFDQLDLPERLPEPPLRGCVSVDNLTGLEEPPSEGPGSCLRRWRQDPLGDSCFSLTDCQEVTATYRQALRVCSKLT

[3] = target: T3, panel of 442 kinases (Homo sapiens, UniProt Q9NRP7); conditions: kinase STK36; for remaining activity at 1 µM: read-out: STK36 (% of control at 1 µM)
T3 construct: purchased Ambit Biosciences (scanMAXX KINOMEscan)
T3 sequence (Q9NRP7 1-1315): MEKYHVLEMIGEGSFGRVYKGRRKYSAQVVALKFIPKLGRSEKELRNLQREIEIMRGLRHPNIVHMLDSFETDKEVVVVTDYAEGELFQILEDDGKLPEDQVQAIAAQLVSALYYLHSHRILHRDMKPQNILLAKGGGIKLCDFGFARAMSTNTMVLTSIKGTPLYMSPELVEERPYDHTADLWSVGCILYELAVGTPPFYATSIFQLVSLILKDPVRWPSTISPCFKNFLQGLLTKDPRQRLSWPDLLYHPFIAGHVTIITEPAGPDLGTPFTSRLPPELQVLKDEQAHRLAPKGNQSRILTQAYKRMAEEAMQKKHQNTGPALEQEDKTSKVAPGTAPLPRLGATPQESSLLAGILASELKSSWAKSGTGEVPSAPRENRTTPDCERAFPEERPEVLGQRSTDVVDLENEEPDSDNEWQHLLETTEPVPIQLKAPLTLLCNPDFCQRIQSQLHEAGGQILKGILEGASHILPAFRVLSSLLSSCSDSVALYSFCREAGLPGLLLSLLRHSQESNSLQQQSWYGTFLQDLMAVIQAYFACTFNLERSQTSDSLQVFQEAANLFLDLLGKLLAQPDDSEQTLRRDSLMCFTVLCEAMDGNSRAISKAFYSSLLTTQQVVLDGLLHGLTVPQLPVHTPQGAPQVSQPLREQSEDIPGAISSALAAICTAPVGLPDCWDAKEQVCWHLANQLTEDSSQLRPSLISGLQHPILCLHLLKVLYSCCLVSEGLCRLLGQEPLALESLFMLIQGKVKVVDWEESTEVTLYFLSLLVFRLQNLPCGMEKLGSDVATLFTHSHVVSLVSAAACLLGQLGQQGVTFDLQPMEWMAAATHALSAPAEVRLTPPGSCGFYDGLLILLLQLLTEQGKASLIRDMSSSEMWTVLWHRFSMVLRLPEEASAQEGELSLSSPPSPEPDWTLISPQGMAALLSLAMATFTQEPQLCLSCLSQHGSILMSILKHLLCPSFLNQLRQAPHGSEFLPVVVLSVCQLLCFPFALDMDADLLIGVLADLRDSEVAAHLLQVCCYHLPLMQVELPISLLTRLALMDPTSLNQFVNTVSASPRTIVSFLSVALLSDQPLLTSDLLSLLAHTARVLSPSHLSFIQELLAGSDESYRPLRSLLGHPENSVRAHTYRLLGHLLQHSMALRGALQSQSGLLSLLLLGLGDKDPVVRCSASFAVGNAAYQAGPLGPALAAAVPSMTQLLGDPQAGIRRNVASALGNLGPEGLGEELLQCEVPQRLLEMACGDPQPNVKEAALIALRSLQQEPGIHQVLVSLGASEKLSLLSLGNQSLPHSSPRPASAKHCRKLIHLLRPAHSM

[4] = target: T4, panel of 442 kinases (Homo sapiens, UniProt Q8IVH8); conditions: kinase MAP4K3; for remaining activity at 1 µM: read-out: % of control at 1 µM
T4 construct: purchased Ambit Biosciences (scanMAXX KINOMEscan)
T4 sequence (Q8IVH8 1-894): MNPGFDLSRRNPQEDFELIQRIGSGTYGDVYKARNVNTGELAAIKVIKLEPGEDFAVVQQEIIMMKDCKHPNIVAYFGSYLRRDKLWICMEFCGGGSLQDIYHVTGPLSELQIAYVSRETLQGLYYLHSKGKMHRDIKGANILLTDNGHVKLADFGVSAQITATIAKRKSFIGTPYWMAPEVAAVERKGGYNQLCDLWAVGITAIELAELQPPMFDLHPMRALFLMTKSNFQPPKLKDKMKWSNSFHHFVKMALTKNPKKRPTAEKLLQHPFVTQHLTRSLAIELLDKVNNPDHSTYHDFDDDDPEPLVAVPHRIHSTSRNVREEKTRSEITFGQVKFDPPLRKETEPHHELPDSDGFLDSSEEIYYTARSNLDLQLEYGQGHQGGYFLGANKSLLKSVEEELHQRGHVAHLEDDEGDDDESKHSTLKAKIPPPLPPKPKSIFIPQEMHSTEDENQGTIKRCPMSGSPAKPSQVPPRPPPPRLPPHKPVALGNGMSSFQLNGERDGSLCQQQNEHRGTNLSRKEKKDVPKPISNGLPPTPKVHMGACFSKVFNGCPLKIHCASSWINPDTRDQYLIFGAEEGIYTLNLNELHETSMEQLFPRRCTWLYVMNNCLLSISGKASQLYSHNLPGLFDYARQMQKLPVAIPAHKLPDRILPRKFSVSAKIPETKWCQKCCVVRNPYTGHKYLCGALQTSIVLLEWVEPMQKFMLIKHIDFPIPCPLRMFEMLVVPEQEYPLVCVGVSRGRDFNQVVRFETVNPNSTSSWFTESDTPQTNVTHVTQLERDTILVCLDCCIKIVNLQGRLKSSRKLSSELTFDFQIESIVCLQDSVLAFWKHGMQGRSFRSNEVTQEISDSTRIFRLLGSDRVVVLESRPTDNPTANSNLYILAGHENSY

[5] = 10 µM, read-out: % of control at 10 µM

T1 sequence (Q9Y463 whole entry): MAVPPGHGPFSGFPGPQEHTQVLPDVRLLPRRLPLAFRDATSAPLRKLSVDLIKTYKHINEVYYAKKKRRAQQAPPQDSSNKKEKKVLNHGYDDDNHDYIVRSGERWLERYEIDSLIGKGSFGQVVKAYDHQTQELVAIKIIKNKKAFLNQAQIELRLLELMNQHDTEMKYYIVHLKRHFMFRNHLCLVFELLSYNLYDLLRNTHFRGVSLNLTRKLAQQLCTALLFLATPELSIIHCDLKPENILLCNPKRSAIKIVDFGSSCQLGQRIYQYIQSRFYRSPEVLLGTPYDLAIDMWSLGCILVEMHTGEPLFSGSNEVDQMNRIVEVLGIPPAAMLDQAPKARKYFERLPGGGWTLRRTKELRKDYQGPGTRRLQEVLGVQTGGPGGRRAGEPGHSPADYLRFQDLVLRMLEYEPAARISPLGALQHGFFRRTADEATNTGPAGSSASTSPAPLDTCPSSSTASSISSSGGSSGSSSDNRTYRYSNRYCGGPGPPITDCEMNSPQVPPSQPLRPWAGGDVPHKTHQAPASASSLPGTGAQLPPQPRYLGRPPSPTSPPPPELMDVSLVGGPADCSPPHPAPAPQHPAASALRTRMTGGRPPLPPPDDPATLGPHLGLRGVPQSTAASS

Row | Structure (SMILES) | remaining activity at 1 µM [1] [%] | remaining activity at 10 µM [1, 5] [%] | remaining activity at 1 µM [2] [%] | remaining activity at 10 µM ([2]; 10 µM, read-out: SNARK (% of control at 10 µM)) [%] | remaining activity at 1 µM [3] [%] | remaining activity at 10 µM ([3]; 10 µM, read-out: STK36 (% of control at 10 µM)) [%] | remaining activity at 1 µM [4] [%] | remaining activity at 10 µM [4, 5] [%]
1 | Nc1cc(C(F)(F)F)c(-c2cc(N3CCOCC3)nc(N3CCOCC3)n2)cn1 [Buparlisib] | 86 | 100 | 100 | 100 | 100 | 100 | 93 | 81
2 | Cn1c(=O)n(-c2ccc(C(C)(C)C#N)cc2)c2c3cc(-c4cnc5ccccc5c4)ccc3ncc21 [Dactolisib, 2-methyl-2-[4-(3-methyl-2-oxo-8-quinolin-3-yl-2,3-dihydroimidazo[4,5-c]quinolin-1-yl)-phenyl] propionitrile] | 93 |  | 34 |  | 89 |  | 30 | 
3 | COc1ncc(-c2ccc3nccc(-c4ccnnc4)c3c2)cc1NS(=O)(=O)c1ccc(F)cc1F [Omipalisib] | 88 |  | 100 |  | 85 |  | 85 | 
4 | FC(F)c1nc2ccccc2n1-c1nc(N2CCOCC2)nc(N2CCOCC2)n1 [ZSTK474, 2-(difluoromethyl)-1-[4,6-di(4-morpholinyl)-1,3,5-triazin-2-yl]-1H-benzimidazole] | 97 |  | 100 |  | 95 |  | 87 | 
